In brackets after ≈: the same amount, converted by molar mass. Read-outs that look alike come from different tables or passages of the source.
Assays:
Assay type in all cases: cell-based
Mobiluncus spp = assay: Agar dilution MIC (CLSI), Mobiluncus spp vaginal isolate; conditions: read-out: Minimal Inhibitory Concentration (MIC)
Finegoldia magna = assay: Agar dilution MIC (CLSI), Finegoldia magna vaginal isolates; conditions: for MIC: read-out: Minimal Inhibitory Concentration (MIC); for Number of strains with indicated MIC: 20 samples
[1] = test system: Megasphaera-like bacteria; assay: Agar dilution MIC (CLSI), Megasphaera-like bacteria vaginal isolates; conditions: for MIC: read-out: Minimal Inhibitory Concentration (MIC); for Number of strains with indicated MIC: 25 samples
Anaerococcus tetradius = assay: Agar dilution MIC (CLSI), Anaerococcus tetradius vaginal isolates; conditions: Anaerococcus tetradius, read-out: Minimal Inhibitory Concentration (MIC)

`CCC[C@@H]1C[C@@H](C(=O)N[C@@H]([C@H]2O[C@H](SC)[C@H](O)[C@@H](O)[C@H]2O)[C@H](C)Cl)N(C)C1` [Clindamycin] gave an MIC (Mobiluncus spp) of 4 µg/mL (≈ 9.41 µM), an MIC (Finegoldia magna; Finegoldia magna, isolate 301303V D) of 8 µg/mL (≈ 18.8 µM) and an MIC (Finegoldia magna; Finegoldia magna, isolate 601205V 39) of 8 µg/mL (≈ 18.8 µM). The MIC (Finegoldia magna; Finegoldia magna, isolate 601275V c) was 128 µg/mL (≈ 301 µM), the MIC (Finegoldia magna; Finegoldia magna, isolate 601276V 23) was 0.5 µg/mL (≈ 1.18 µM) and the MIC (Finegoldia magna; Finegoldia magna, isolate 601283V 14) was 4 µg/mL (≈ 9.41 µM). The MIC (Finegoldia magna; Finegoldia magna, isolate 601295V 25) was 0.25 µg/mL (≈ 0.588 µM), the MIC (Finegoldia magna; Finegoldia magna, isolate 601298V 30) was 128 µg/mL (≈ 301 µM) and the MIC (Finegoldia magna; Finegoldia magna, isolate 601308V 24) was 0.25 µg/mL (≈ 0.588 µM). For the same molecule, the MIC (Finegoldia magna; Finegoldia magna, isolate 601315V 17) was 4 µg/mL (≈ 9.41 µM), the MIC (Finegoldia magna; Finegoldia magna, isolate 601315V 17A) was 4 µg/mL (≈ 9.41 µM) and the MIC (Finegoldia magna; Finegoldia magna, isolate 601320V 24) was 0.5 µg/mL (≈ 1.18 µM). The MIC (Finegoldia magna; Finegoldia magna, isolate 601323V K) was 0.25 µg/mL (≈ 0.588 µM), the MIC (Finegoldia magna; Finegoldia magna, isolate 601330V c) was 0.25 µg/mL (≈ 0.588 µM) and the MIC (Finegoldia magna; Finegoldia magna, isolate 601335V c1) was 0.5 µg/mL (≈ 1.18 µM). The MIC (Finegoldia magna; Finegoldia magna, isolate 601340V 27) was 0.25 µg/mL (≈ 0.588 µM), the MIC (Finegoldia magna; Finegoldia magna, isolate 601359V c) was 0.25 µg/mL (≈ 0.588 µM) and the MIC (Finegoldia magna; Finegoldia magna, isolate 601363V 6) was 0.03 µg/mL (≈ 0.0706 µM). It also gave an MIC (Finegoldia magna; Finegoldia magna, isolate 601367V c) of 0.5 µg/mL (≈ 1.18 µM), an MIC (Finegoldia magna; Finegoldia magna) of over 128 µg/mL and an MIC50 (Finegoldia magna; Finegoldia magna, # tested 20) of 0.5 µg/mL (≈ 1.18 µM). The MIC90 (Finegoldia magna; Finegoldia magna, # tested 20) was 128 µg/mL (≈ 301 µM), the “Number of strains with indicated MIC” value (Finegoldia magna; MIC 0.03 μg/ml) was 1 and the “Number of strains with indicated MIC” value (Finegoldia magna; MIC 8 μg/ml) was 2. The “Number of strains with indicated MIC” value (Finegoldia magna; MIC >[…]) was 2, the “Minimal Inhibitory Concentration (MIC)” value (Finegoldia magna; isolate 601214V F) was over 128 µg/mL and the MIC ([1]; 427510 h, isolate 427507 H) was 0.03 µg/mL (≈ 0.0706 µM). The MIC50 ([1]; # tested 25) was 0.03 µg/mL (≈ 0.0706 µM), the MIC90 ([1]; # tested 25) was 0.03 µg/mL (≈ 0.0706 µM) and the “MIC Range” value ([1]; # tested 25) was 0.03 to 0.125 µg/mL. The “Number of strains with indicated MIC” value ([1]; MIC 0.03 μg/ml) was 24, the “Number of strains with indicated MIC” value ([1]; MIC […]) was 1 and the MIC ([1]; isolate 426749 T) was 0.03 µg/mL (≈ 0.0706 µM). The MIC ([1]; isolate 426766 Q) was 0.03 µg/mL (≈ 0.0706 µM), the MIC ([1]; isolate 426788 8a) was 0.03 µg/mL (≈ 0.0706 µM) and the MIC ([1]; isolate 426788 C) was 0.03 µg/mL (≈ 0.0706 µM). The MIC ([1]; isolate 427470 10) was 0.03 µg/mL (≈ 0.0706 µM), the MIC ([1]; isolate 427490 2u) was 0.03 µg/mL (≈ 0.0706 µM) and the MIC ([1]; isolate 427509 A) was 0.125 µg/mL (≈ 0.294 µM). It also gave an MIC ([1]; isolate 427522 8) of 0.03 µg/mL (≈ 0.0706 µM), an MIC ([1]; isolate 600770 O) of 0.03 µg/mL (≈ 0.0706 µM) and an MIC ([1]; isolate 600790 N) of 0.03 µg/mL (≈ 0.0706 µM). The MIC ([1]; isolate 600796 V) was 0.03 µg/mL (≈ 0.0706 µM), the MIC ([1]; isolate 600831 9) was 0.03 µg/mL (≈ 0.0706 µM) and the MIC ([1]; isolate 600837 18) was 0.03 µg/mL (≈ 0.0706 µM). The MIC ([1]; isolate 600861 P) was 0.03 µg/mL (≈ 0.0706 µM), the MIC ([1]; isolate 602236 E3) was 0.03 µg/mL (≈ 0.0706 µM) and the MIC ([1]; isolate 602241 D) was 0.03 µg/mL (≈ 0.0706 µM). The MIC ([1]; isolate 602241 F) was 0.03 µg/mL (≈ 0.0706 µM), the MIC ([1]; isolate 602270 A) was 0.03 µg/mL (≈ 0.0706 µM) and the MIC ([1]; isolate 602282 I) was 0.03 µg/mL (≈ 0.0706 µM). The MIC ([1]; isolate 602288 16) was 0.03 µg/mL (≈ 0.0706 µM), the MIC ([1]; isolate 602302 22) was 0.03 µg/mL (≈ 0.0706 µM) and the MIC ([1]; isolate 602305 I) was 0.03 µg/mL (≈ 0.0706 µM). The MIC ([1]; isolate 602324 8) was 0.03 µg/mL (≈ 0.0706 µM), the MIC ([1]; isolate 602672 12A) was 0.03 µg/mL (≈ 0.0706 µM) and the MIC (Anaerococcus tetradius; isolate 601098V T) was 2 µg/mL (≈ 4.71 µM). For the same molecule, the MIC (Anaerococcus tetradius; isolate 601103V 21) was 2 µg/mL (≈ 4.71 µM), the MIC (Anaerococcus tetradius; isolate 601175V I) was 1 µg/mL (≈ 2.35 µM) and the MIC (Anaerococcus tetradius; isolate 601202V 11) was 2 µg/mL (≈ 4.71 µM). It also gave an MIC (Anaerococcus tetradius; isolate 601212V 14) of 2 µg/mL (≈ 4.71 µM), an MIC (Anaerococcus tetradius; isolate 601221V 12) of 0.03 µg/mL (≈ 0.0706 µM) and an MIC (Anaerococcus tetradius; isolate 601222V 15) of 0.25 µg/mL (≈ 0.588 µM). The MIC (Anaerococcus tetradius; isolate 601242V 17) was 4 µg/mL (≈ 9.41 µM) and the MIC (Anaerococcus tetradius; isolate 601256V 9) was 2 µg/mL (≈ 4.71 µM).

Source: patent US20160038468A1 (priority 2013, published 2016)
